Laboratory results from patent US7514419B2, “Phosphorus-containing thyromimetics” (Metabasis Therapeutics, Inc., priority 2003, dated 2009).
Each block holds one compound with its values, some of them ahead of it.

Columns and labels:
[1] = test system: Hypercholesterolemic rats; experiment: Cholesterol lowering in hypercholesterolemic rats; assay type: in vivo, rat; conditions: for change in vivo at 0.2 mg/kg/day / change in vivo at 0.5 mg/kg/day: Rattus norvegicus, percentage change from pre-dose cholesterol; for cholesterol lowering: 0.5 mg/kg/d orally; for change in vivo at 0.5 mg/kg/day: delivered p.o. (0.5 mg/kg/d)
Sprague Dawley (SD) rat = experiment: Cardiovascular activity in the Sprague Dawley rat, 7 days oral; assay type: in vivo; conditions: SD rats, Compound 18 1 mg/kg, Compound cis-13-1 1-50 mg/kg/day
From the text: Method: […] The control group (n=6) was given vehicle only. […] On the 7th day after the start of dosing, animals were anesthetized with Isofluorane and the left ventricle cannulated with a high fidelity catheter tip transducer via the right carotid artery. Left ventricular pressure, its first derivative (LVdP/dt), lead I ECG, and heart rate (HR) triggered off the ECG waveform, were digitally recorded. LV dP/dt is a well accepted measure of ionotropic state. Systolic and diastolic aortic pressures were measured by retracting the catheter into the proximal aorta.

ZDF rats = conditions: rat, in vivo, 28 days
Protocol: Compound 18 was administered at doses up to 5 mg/kg/d. Compound cis-13-1 was administered at doses up to 50 mg/kg/d. We reasoned that the ZDF rat, as a metabolically challenged animal model, would be more sensitive to the potential adverse cardiac effects of thyromimetics than a normal, cholesterol-fed rat. At sacrifice, heart rate, and the first derivative of left ventricular pressure (LV dP/dt) were measured with a Millar catheter inserted into the left ventricle.

cholesterol-fed rat = experiment: Subacute study in cholesterol-fed rats, IP once-a-day for seven days: serum cholesterol, heart weight, heart mGPDH; conditions: cholesterol-fed rats, IP 7 days; Compound 17 at 0.1-1 mg/kg/day
Protocol: The cholesterol-fed rat is an animal model of hypercholesterolemia generated by feeding the animals a diet with high cholesterol content.
Methods: Rats were maintained on a diet containing 1.5% cholesterol and 0.5% cholic acid for 2 weeks prior to initiation of treatment. Serum cholesterol values were assessed and the animals randomized into groups for treatment.

[2] = test system: normal rats maintained on a cholesterol-containing diet; experiment: Continuous infusion study in rats on a cholesterol-containing diet; conditions: continuous infusion 1 mg/kg/day; for cardiovascular parameters (heart rate, LV dP/dt, blood pressure): day 7 or day 14
Protocol: Screening for thyromimetic activity was performed in normal rats maintained on a cholesterol-containing diet.

[3] = target: T1, human thyroid hormone receptors TRβ1 (Homo sapiens, UniProt P10828); experiment: Receptor binding: labeled T3 binding/displacement, gel filtration and scintillation proximity assay (SPA); conditions: read-out: Ki TRβ
T1 sequence (P10828 1-461): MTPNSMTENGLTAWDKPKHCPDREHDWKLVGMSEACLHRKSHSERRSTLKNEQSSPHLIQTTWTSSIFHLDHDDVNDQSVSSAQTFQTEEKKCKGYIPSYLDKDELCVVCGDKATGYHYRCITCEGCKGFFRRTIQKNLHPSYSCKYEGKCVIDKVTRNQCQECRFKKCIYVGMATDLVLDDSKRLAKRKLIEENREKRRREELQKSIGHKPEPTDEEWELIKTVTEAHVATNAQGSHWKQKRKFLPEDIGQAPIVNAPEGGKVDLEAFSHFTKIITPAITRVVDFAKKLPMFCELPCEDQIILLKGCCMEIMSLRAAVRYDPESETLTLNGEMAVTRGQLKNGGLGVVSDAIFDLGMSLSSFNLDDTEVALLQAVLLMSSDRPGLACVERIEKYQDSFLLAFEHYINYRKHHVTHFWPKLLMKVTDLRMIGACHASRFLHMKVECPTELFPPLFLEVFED
T1 sequence (P19793 1-462 partner): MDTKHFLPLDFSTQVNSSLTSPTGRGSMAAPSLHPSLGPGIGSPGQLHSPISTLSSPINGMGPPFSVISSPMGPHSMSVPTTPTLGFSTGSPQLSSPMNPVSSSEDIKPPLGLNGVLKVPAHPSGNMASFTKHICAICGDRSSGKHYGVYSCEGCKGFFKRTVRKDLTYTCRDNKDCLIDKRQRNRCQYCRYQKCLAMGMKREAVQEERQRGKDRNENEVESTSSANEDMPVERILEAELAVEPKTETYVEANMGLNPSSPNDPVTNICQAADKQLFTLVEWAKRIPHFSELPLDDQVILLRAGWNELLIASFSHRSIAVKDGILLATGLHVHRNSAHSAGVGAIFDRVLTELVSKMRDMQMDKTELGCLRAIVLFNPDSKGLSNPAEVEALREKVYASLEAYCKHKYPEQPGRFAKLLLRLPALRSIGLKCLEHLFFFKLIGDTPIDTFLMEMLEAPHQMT

[4] = target: T2, human thyroid hormone receptors TRα1 (Homo sapiens, UniProt P10827); experiment: as above; conditions: read-out: Ki TRα
T2 sequence (P10827 1-410 isoform P10827-2): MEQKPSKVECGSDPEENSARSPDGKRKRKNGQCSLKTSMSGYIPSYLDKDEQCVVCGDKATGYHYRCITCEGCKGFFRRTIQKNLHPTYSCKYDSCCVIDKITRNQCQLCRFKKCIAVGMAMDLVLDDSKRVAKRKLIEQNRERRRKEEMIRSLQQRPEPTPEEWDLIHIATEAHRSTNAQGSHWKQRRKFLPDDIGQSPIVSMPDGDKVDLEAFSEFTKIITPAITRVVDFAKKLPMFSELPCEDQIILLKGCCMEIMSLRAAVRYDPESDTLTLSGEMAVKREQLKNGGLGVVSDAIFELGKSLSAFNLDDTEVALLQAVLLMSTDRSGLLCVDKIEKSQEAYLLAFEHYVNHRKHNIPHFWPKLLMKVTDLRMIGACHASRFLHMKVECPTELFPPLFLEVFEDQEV
T2 sequence (P19793 1-462 partner): T1 sequence (P19793 1-462 partner)

SMILES: CC(C)c1cc(Cc2c(Cl)cc(OCP(=O)(O)O)cc2Cl)ccc1O [Compound 7-5, [3,5-dichloro-4-(4′-hydroxy-3′-iso-propylbenzyl)phenoxy] methylphosphonic acid]
change in vivo at 0.2 mg/kg/day ([1]; ip, delivered i.p (0.2 mg/kg/d)): -63.3%
change in vivo at 0.2 mg/kg/day ([1]; po, delivered p.o. (0.2 mg/kg/d)): -38%

SMILES: CC(C)c1cc(Oc2c(Br)cc(CP(=O)(OCOC(=O)C(C)(C)C)OCOC(=O)C(C)(C)C)cc2Br)ccc1O [Compound 12-5, Di-(pivaloyloxymethyl)[3,5-dibromo-4-(4′-hydroxy-3′-iso-propylphenoxy)benzyl] phosphonate]
cholesterol lowering [1]: significant lowering of cholesterol

SMILES: CC(C)c1cc(Oc2c(I)cc(OCP(=O)(OCOC(=O)C(C)(C)C)OCOC(=O)C(C)(C)C)cc2I)ccc1O [Compound 12-7, Di(pivaloyloxymethyl)[3,5-diiodo-4-(4′-hydroxy-3′-iso-propylphenoxy)phenoxy]methylphosphonate]
change in vivo at 0.5 mg/kg/day ([1]; po): -39.1%

TI Improvement, ED15 HR (ZDF rats; ZDF): >39
TI Improvement, ED25 LV dP/dt (ZDF rats; ZDF): >102
calculated TI in a non-metabolically challenged animal with respect to LV dP/dt (ZDF rats): > 10,000
SMILES: Cc1cc(OC[P@@]2(=O)OCC[C@@H](c3cccc(Cl)c3)O2)cc(C)c1Cc1ccc(O)c(C(C)C)c1 [Compound 13-1-cis, Cis (S)-2-[(3,5-Dimethyl-4-(4′-hydroxy-3′-iso-propylbenzyl)phenoxy)methyl]-4-(3-Chlorophenyl)-2-oxo-2λ^5-[1,3,2]-dioxaphosphinane]
HR, LV dP/dt and aortic pressure compared to vehicle (Sprague Dawley (SD) rat): not significantly different compared to vehicle treated animals
heart weight and heart weight normalized to body weight (Sprague Dawley (SD) rat): no significant changes
cholesterol lowering [1]: significant lowering of cholesterol
calculated TI in a non-metabolically challenged animal with respect to heart rate (ZDF rats): > 3900

SMILES: CC(C)c1cc(Cc2c(Cl)cc(OC[P@@]3(=O)OCC[C@@H](c4cccc(Cl)c4)O3)cc2Cl)ccc1O [Compound 13-11, Cis (S)-2-[(3,5-dichloro-4-(4′-hydroxy-3′-iso-propylbenzyl)phenoxy)methyl]-4-(3-chlorophenyl)-2-oxo-2λ^5-[1,3,2]-dioxaphosphonane]
change in vivo at 0.5 mg/kg/day ([1]; po): -24.8%

SMILES: CCOC(=O)[C@H](C)NP(=O)(Cc1cc(Br)c(Oc2ccc(O)c(C(C)C)c2)c(Br)c1)N[C@@H](C)C(=O)OCC [Compound 15-5, di-N-(L-1-ethoxycarbonylethylamino)[3,5-dibromo-4-(4′-hydroxy-3′-iso-propylphenoxy)benzyl]phosphonamide]
cholesterol lowering [1]: significant lowering of cholesterol

SMILES: CCOC(=O)[C@H](C)NP(=O)(COc1cc(Cl)c(Cc2ccc(O)c(C(C)C)c2)c(Cl)c1)N[C@@H](C)C(=O)OCC [Compound 15-7]
change in vivo at 0.5 mg/kg/day ([1]; po): -29.1%

SMILES: Cc1cc(OCC(=O)O)cc(C)c1Cc1ccc(O)c(C(C)C)c1 [Compound 17, [3,5-dimethyl-4-(4′-hydroxy-3′-iso-propylbenzyl)-phenoxy]acetic acid, reference compound]
cardiac hypertrophy (cholesterol-fed rat): Undesirable cardiac hypertrophy was observed
total cholesterol at day 7 [2]: significant decrease in cholesterol
total cholesterol at day 14 [2]: no significant decrease in cholesterol was observed

Ki [3]: > 2000 nM
Ki [4]: > 2000 nM
SMILES: Cc1cc(C(=O)CP(=O)(O)O)cc(C)c1Cc1ccc(F)c(C(C)C)c1 [Compound 41-2]

Ki [3]: > 2000 nM
Ki [4]: > 2000 nM
SMILES: Cc1cc(CCP(=O)(O)O)cc(C)c1Oc1ccc(F)c(C(C)C)c1 [Compound 42-2]

SMILES: COP(=O)(O)COc1cc(C)c(Cc2ccc(O)c(C(C)C)c2)c(C)c1 [Compound 69, [3,5-dimethyl-4-(4′-hydroxy-3′-iso-propylbenzyl)phenoxy]-methylphosphonic acid monomethyl ester]
total cholesterol at day 7 [2]: cholesterol lowering effects
total cholesterol at day 14 [2]: cholesterol lowering effects
cardiovascular parameters (heart rate, LV dP/dt, blood pressure) [2]: no changes in any of the cardiovascular parameters

SMILES: CCOP(=O)(O)COc1cc(C)c(Cc2ccc(O)c(C(C)C)c2)c(C)c1 [Compound 69-1, [3,5-dimethyl-4-(4′-hydroxy-3′-iso-propylbenzyl)phenoxy]methylphosphonic acid monoethyl ester]
total cholesterol at day 7 [2]: cholesterol lowering effects
total cholesterol at day 14 [2]: cholesterol lowering effects
cardiovascular parameters (heart rate, LV dP/dt, blood pressure) [2]: no changes in any of the cardiovascular parameters

SMILES: Cc1cc(OCP(C)(=O)O)cc(C)c1Cc1ccc(O)c(C(C)C)c1 [Compound 70, [3,5-dimethyl-4-(4′-hydroxy-3′-iso-propylbenzyl)-phenoxymethyl]methylphosphinic acid]
total cholesterol at day 7 [2]: cholesterol lowering effects
total cholesterol at day 14 [2]: cholesterol lowering effects
cardiovascular parameters (heart rate, LV dP/dt, blood pressure) [2]: no changes in any of the cardiovascular parameters
